In patent publication US9404142B2, “Screening methods for identifying Plasmodium proteases inhibitors” (Institut Pasteur, priority 2010, dated 2016):
Read-outs that look alike come from different tables or passages of the source.

How the values were obtained:
P. falciparum 3D7 strain = experiment: In vitro drug susceptibility assay on P. falciparum culture, clone 3D7; format: cell-based; conditions: Plasmodium falciparum
Description: FIG. 2B depicts the FRET-based specific enzymatic assay which was used. In this particular case the assay consists in measuring fluorescence of tagged peptidic substrate of SUB1. […] Molecules where thus tested and their Ki (inhibition constant) was determined on the PvSUB1 recombinant enzyme. FIG. 2C provides determination of the Ki of the AG6, AG1 and BH5 compounds for the recombinant PvSUB1 enzyme with the Dabsyl Edans substrate. […] The final mixture was distributed in duplicate into a 384-well black microtiter plate (Thermo Scientific) and the fluorescence was monitored. The slope of the linear part of the kinetic was determined in an Excel™ (Microsoft) spreadsheet. The Ki and EC50 values expressed in μM were determined using GraphPad Prism™ software.
Parasites were incubated at 37° C. in an atmosphere composed of 5% O2, 5% CO2 and 90% N2. […] IC50/EC50 have been determined following nonlinear regression analysis using HN-NonLin V1.1 software (malaria.farch.net).

[1] = test system: P. falciparum (3D7 clone) segmented schizonts; experiment: Merozoite egress/invasion, flow cytometry (YOYO-1) on segmented schizonts; format: cell-based, Plasmodium falciparum; conditions: 90 μM, 12 hr, serum-containing medium
Description: Next, the selected SUB1 inhibitors were evaluated biologically for their impact on P. falciparum 3D7 stage-specific ex vivo culture. […] In vitro synchronized culture of P. falciparum composed of 0.5% of segmented schizonts (To) was cultivated for 12 hr in serum-free medium in the absence (T12) or presence of DMSO (0.9% v/v) (lane DMSO). Lanes A/G1, A/G6, B/H5 correspond to parasites incubated with 90 μM of corresponding compounds. Lanes E64 and RBC correspond to parasites cultured in presence of E64 (10 μM) and uninfected erythrocytes respectively. Parasite extracts and culture supernatants were analyzed by western blot with mAb 24C6.1F1. […] Segmented schizonts (starting material, To) were cultivated for 12 hr in serum-containing medium and their transition to newly formed trophozoites-stages in presence of 0.9% DMSO (DMSO) was analysed by flow cytometry using YOYO1 Facs technique (Li et al, Cytometry, 71A, 297-307, 2007). […]
A synchronised culture composed of segmented schizonts of P. falciparum (3D7 clone) at 0.5% parasitemia and 1% hematocrit is performed in a 24 wells plate. […] The progress of the parasitaemia from segmented schizont to newly formed trophozoites was assessed by flow cytometry after staining samples by the DNA-binding fluorescent dye, YOYO-1™, as previously described by Li and colleagues [2007, Cytometry A 71: 297-307.] with some modifications. […]

recombinant PvSUB1 = recombinant PvSUB1 (Plasmodium vivax, UniProt E6Y8B9); experiment: FRET-based PvSUB1 enzymatic assay, Ki determination; format: biochemical; conditions: Dabsyl Edans substrate; mean of at least three independent experiments ± SEM
Description: FIG. 2B depicts the FRET-based specific enzymatic assay which was used. In this particular case the assay consists in measuring fluorescence of tagged peptidic substrate of SUB1. An uncleaved peptide has low intensity emission whereas, when the peptide is cleaved by SUB1, high intensity emissions are measured. […] Molecules where thus tested and their Ki (inhibition constant) was determined on the PvSUB1 recombinant enzyme. FIG. 2C provides determination of the Ki of the AG6, AG1 and BH5 compounds for the recombinant PvSUB1 enzyme with the Dabsyl Edans substrate. Ten different concentrations, ranging from 300 μM to 585 nM following sequential 1:2 dilutions, of the compounds were tested using the PvSUB1 enzymatic assay. The final mixture was distributed in duplicate into a 384-well black microtiter plate (Thermo Scientific) and the fluorescence was monitored. The slope of the linear part of the kinetic was determined in an Excel™ (Microsoft) spreadsheet. The Ki and EC50 values expressed in μM were determined using GraphPad Prism™ software. […]
For the kinetic assays we used the recombinant PvSUB1/PfSUB1 enzymes and specific peptide substrates whose sequence are deduced from the auto-maturation site of each one: KLVGADDVSLA (SEQ ID NO: 9), which cleavage occurs between the two aspartates for PvSUB1 and KLVSADNIDIS (SEQ ID NO: 11) which is cleaved between the aspartate and the asparagine for PfSUB1. […] The final mixture was distributed in duplicate into a 384-well black microtiter plate (Thermo Scientific) and the fluorescence was monitored every 3 minutes for 90 min at 37° C. in a Labsystems Fluoroskan Ascent™ spectrofluorometer or a Tecan Infinite M1000™ spectrofluorometer using the excitation and emission wavelengths of […] or 620/680 nm for the Dabsyl/Edans or DYQ660/DY630 substrates respectively. The slope of the linear part of the kinetic was determined in an Excel™ (Microsoft) spreadsheet. Every steps of the enzymatic assay were done on ice to make sure that the protein was not active before the measure of the fluorescence. […]

P. falciparum Dd2 strain = experiment: In vitro drug susceptibility assay on P. falciparum culture, clone Dd2; format: cell-based; conditions: Plasmodium falciparum, DD2, read-out: IC50 on P. falciparum Dd2 strain
SERA5 maturation by SUB1 = experiment: Inhibition of maturation of SERA5 (western blot) in synchronized P. falciparum culture; format: cell-based, Plasmodium falciparum; conditions: compounds 90 μM, E64 10 μM; 12 hr, serum-free medium; western blot mAb 24C6.1F1
Description: Next, the selected SUB1 inhibitors were evaluated biologically for their impact on P. falciparum 3D7 stage-specific ex vivo culture. […] In vitro synchronized culture of P. falciparum composed of 0.5% of segmented schizonts (To) was cultivated for 12 hr in serum-free medium in the absence (T12) or presence of DMSO (0.9% v/v) (lane DMSO). Lanes A/G1, A/G6, B/H5 correspond to parasites incubated with 90 μM of corresponding compounds. Lanes E64 and RBC correspond to parasites cultured in presence of E64 (10 μM) and uninfected erythrocytes respectively. Parasite extracts and culture supernatants were analyzed by western blot with mAb 24C6.1F1. SERA5 126 kDa precursor and its processed forms of 73, 56 and 50 kDa are indicated. […] Segmented schizonts (starting material, To) were cultivated for 12 hr in serum-containing medium and their transition to newly formed trophozoites-stages in presence of 0.9% DMSO (DMSO) was analysed by flow cytometry using YOYO1 Facs technique (Li et al, Cytometry, 71A, 297-307, 2007). Gates were selected to exclude uninfected erythrocytes and converted to two-dimensional plots illustrating the consequence of the presence of tested compounds on the arrest of schizogony. All compounds were tested at 90 μM, except E64 tested at 10 μM.

[2] = biological target: PfSUB1 Dabsyl Edans substrate (Plasmodium falciparum)
[3] = biological target: PvSUB1 Dabsyl Edans substrate (Plasmodium vivax)
[4] = chloroquino-sensitive clone 3D7, mean ± SEM, read-out: IC50 on P. falciparum 3D7 strain

Row | Compound | IC50 (P. falciparum 3D7 strain; [4]) [µM] | Ki (recombinant PvSUB1) [µM] | IC50 (P. falciparum Dd2 strain) | further results
1 | O=C(C[n+]1cccc(C(=O)Nc2ccccc2)c1)c1ccc(NC(=O)c2ccccc2)cc1 [A/G1] | 4.7 ± 1.8 | 5.5 ± 2.4 | 3.5 ± 1.7 µM | Arrest of schizogony / merozoite egress [1]: able to maintain the parasites to the schizonts stage
2 | COc1cccc(C2c3c(-c4ccc(F)cc4)n[nH]c3C(=O)N2c2ccccc2)c1 (stereo not shown) [A/G6] | 17.7 ± 1.7 | 8.2 ± 1.9 | 14.8 ± 6.7 µM | Arrest of schizogony / merozoite egress [1]: able to maintain the parasites to the schizonts stage
3 | O=C(Cn1ncc2c3ccccc3n(Cc3cccc(Cl)c3)c2c1=O)N1CCc2ccccc21 [B/H5] | 16.9 ± 3.3 | 1.4 ± 1 | 13 ± 8.1 µM | –
4 | CC(C)C[C@H](NC(=O)[C@H]1O[C@@H]1C(=O)O)C(=O)NCCCCN=C(N)N [Compound E64] | – | – | – | Maturation of SERA5 by SUB1 successive cleavages (SERA5 maturation by SUB1): inactive
5 | CCN(CC)CCCC(C)Nc1ccnc2cc(Cl)ccc12 (stereo not shown) [chloroquine, reference compound] | – | – | 0.0355 ± 0.0137 µg/mL | IC50 (P. falciparum 3D7 strain; 3D7, read-out: IC50 on P. falciparum 3D7 strain): 0.0043 ± 0.0013 µg/mL
6 | recombinant Plasmodium falciparum SUB1 (PfSUB1) (enzyme) | – | – | – | apparent Km, FRET-based cleavage assay [2]: 30.2 µM
7 | recombinant enzymatically active form of Plasmodium vivax SUB1-Belem (PvSUB1-Belem) (enzyme) | – | – | – | apparent Km, FRET-based cleavage assay [3]: 19.7 µM
